# Test results reported in patent US10689377B2 (Mirati Therapeutics, Inc., priority 2017, dated 2020).
# Biological target: KRas G12C (Homo sapiens, UniProt P01116, G12C)
# Experiment: Cellular inhibition of KRas G12C measured by Phospho-ERK in NCI-H358 cells
# Type: cell-based
# Conditions: pERK(Thr202/Tyr204) normalized with GAPDH, NCI-H358 cells, 3 hours; read-out: IC50
# Procedure, shortened: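 NCI-H358 cells treated 3 h with compound (0.5% DMSO final), then fixed and methanol-permeabilised. In-cell immunofluorescence measured pERK(Thr202/Tyr204) normalised to GAPDH as percent of DMSO control. IC50 from a 4-parameter dose-response fit.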
# KRas G12C, sequence (P01116 1-188 isoform P01116-2 G12C): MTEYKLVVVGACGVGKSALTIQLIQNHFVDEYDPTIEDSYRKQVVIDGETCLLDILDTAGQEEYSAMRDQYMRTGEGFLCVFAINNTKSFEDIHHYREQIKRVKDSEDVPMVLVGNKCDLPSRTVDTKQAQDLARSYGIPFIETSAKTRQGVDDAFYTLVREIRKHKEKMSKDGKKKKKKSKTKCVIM
row,IC50 [nM],Compound
1,0.1 to 1000,"C=CC(=O)N1CCN(c2nc(OC[C@H]3CN(C)[C@H](C)CO3)nc3c2CCN(c2cccc4ccccc24)C3)C[C@@H]1CC#N [Example 451, 2-((S)-1-Acryloyl-4-(2-(((2R,5R)-4,5-dimethylmorpholin-2-yl)methoxy)-7-(naphthalen-1-yl)-5,6,7,8-tetrahydropyrido[3,4-d]pyrimidin-4-yl)piperazin-2-yl)acetonitrile]"
2,0.1 to 1000,"C=CC(=O)N1CCN(c2nc(OC[C@@H]3C[C@@H](OC)CN3C)nc3c2CCN(c2cccc4ccccc24)C3)CC1CC#N (stereo partly drawn) [Example 268, 2-(1-acryloyl-4-(2-(((2S,4R)-4-methoxy-1-methylpyrrolidin-2-yl)methoxy)-7-(naphthalen-1-yl)-5,6,7,8-tetrahydropyrido[3,4-d]pyrimidin-4-yl)piperazin-2-yl)acetonitrile]"
3,0.1 to 1000,"C=C(NC(C)=O)C(=O)N1CCN(c2nc(OC[C@@H]3CCCN3C)nc3c2CCN(c2cccc4cccc(C)c24)C3)C[C@@H]1CC#N [Example 525, N-(3-((S)-2-(cyanomethyl)-4-(7-(8-methylnaphthalen-1-yl)-2-(((S)-1-methylpyrrolidin-2-yl)methoxy)-5,6,7,8-tetrahydropyrido [3,4-d]pyrimidin-4-yl)piperazin-1-yl)-3-oxoprop-1-en-2-yl)acetamide]"
4,> 1000,"C=CC(=O)N1CCN(c2nc(OC[C@@H]3CCCN3C)nc3c2CCN(c2cccc4ncccc24)C3)CC1CC#N (stereo partly drawn) [Example 294, 2-[4-[2-[[(2S)-1-methylpyrrolidin-2-yl]methoxy]-7-(5-quinolyl)-6,8-dihydro-5H-pyrido[3,4-d]pyrimidin-4-yl]-1-prop-2-enoyl-piperazin-2-yl]acetonitrile]"
5,0.1 to 1000,"CC#CC(=O)N1CCN(c2nc(OC[C@@H]3CCCN3C)nc3c2CCN(c2cccc4cccc(C)c24)C3)C[C@@H]1CC#N [Example 458, 2-((S)-1-(but-2-ynoyl)-4-(7-(8-methylnaphthalen-1-yl)-2-(((S)-1-methylpyrrolidin-2-yl)methoxy)-5,6,7,8-tetrahydropyrido[3,4-d]pyrimidin-4-yl)piperazin-2-yl)acetonitrile]"
6,> 1000,"C=CC(=O)N1CCN(c2nc(OCCCN3CCOCC3)nc3c2CCN(c2c(C)ccc4[nH]ncc24)C3)CC1 [Example 44, 1-(4-(7-(5-methyl-1H-indazol-4-yl)-2-(3-morpholinopropoxy)-5,6,7,8-tetrahydropyrido[3,4-d]pyrimidin-4-yl)piperazin-1-yl)prop-2-en-1-one]"
7,> 1000,"C=CC(=O)N1CCN(c2nc(OCCN(C)C)nc3c2CCN(c2cc(O)cc4ccccc24)C3)CC1CO (stereo not shown) [Example 50, 1-(4-(2-(2-(dimethylamino)ethoxy)-7-(3-hydroxynaphthalen-1-yl)-5,6,7,8-tetrahydropyrido [3,4-d]pyrimidin-4-yl)-2-(hydroxymethyl)piperazin-1-yl)prop-2-en-1-one]"
8,0.1 to 1000,"C=CC(=O)N1CCN(c2nc(OC[C@H]3C[C@H](F)CN3C)nc3c2CCN(c2cccc(F)c2C(F)(F)F)C3)CC1CC#N (stereo partly drawn) [Example 417, 2-(1-acryloyl-4-(2-(((2R,4S)-4-fluoro-1-methylpyrrolidin-2-yl)methoxy)-7-(3-fluoro-2-(trifluoromethyl)phenyl)-5,6,7,8-tetrahydropyrido[3,4-d]pyrimidin-4-yl)piperazin-2-yl)acetonitrile]"
9,0.1 to 1000,"C=CC(=O)N1CCN(c2nc(OC[C@H]3CN(C)C4(CC4)CO3)nc3c2CCN(c2cccc4ccccc24)C3)C[C@@H]1CC#N [Example 448, 2-((S)-1-Acryloyl-4-(2-(((R)-4-methyl-7-oxa-4-azaspiro[2.5]octan-6-yl)methoxy)-7-(naphthalen-1-yl)-5,6,7,8-tetrahydropyrido[3,4-d]pyrimidin-4-yl)piperazin-2-yl)acetonitrile]"
10,0.1 to 1000,"C=CC(=O)N1CCN(c2nc(OC[C@@H]3C[C@H](O)CN3C)nc3c2CCN(c2cccc4ccccc24)C3)CC1CC#N (stereo partly drawn) [Example 419, 2-(1-acryloyl-4-(2-(((2S,4S)-4-hydroxy-1-methylpyrrolidin-2-yl)methoxy)-7-(naphthalen-1-yl)-5,6,7,8-tetrahydropyrido[3,4-d]pyrimidin-4-yl)piperazin-2-yl)acetonitrile]"
11,0.1 to 1000,"Cc1cccc(N2CCc3c(nc(OC[C@@H]4C[C@@H](F)CN4C)nc3N3CCN(C(=O)/C=C/CN(C)C)[C@@H](CC#N)C3)C2)c1C [Example 438, 2-((S)-1-((E)-4-(dimethylamino)but-2-enoyl)-4-(7-(2,3-dimethylphenyl)-2-(((2S,4R)-4-fluoro-1-methylpyrrolidin-2-yl)methoxy)-5,6,7,8-tetrahydropyrido[3,4-d]pyrimidin-4-yl)piperazin-2-yl)acetonitrile]"
12,0.1 to 1000,"CN1CCC[C@H]1COc1nc2c(c(N3CCN(C(=O)C#CCO)[C@@H](CC#N)C3)n1)CCN(c1cccc3ccccc13)C2 [Example 474, 2-((S)-1-(4-hydroxybut-2-ynoyl)-4-(2-(((S)-1-methylpyrrolidin-2-yl)methoxy)-7-(naphthalen-1-yl)-5,6,7,8-tetrahydropyrido[3,4-d]pyrimidin-4-yl)piperazin-2-yl)acetonitrile]"
13,> 1000,"C=CC(=O)N1CCN(c2ncnc3c2CC(=O)N(c2cc(O)cc4ccccc24)C3)CC1 [Example 113, 4-(4-acryloylpiperazin-1-yl)-7-(3-hydroxynaphthalen-1-yl)-7,8-dihydropyrido[3,4-d]pyrimidin-6(5H)-one]"
14,0.1 to 1000,"C=CC(=O)N1CCN(c2nc(OC[C@@]3(C)CCCN3C)nc3c2CCN(c2cccc(F)c2C(F)(F)F)C3)CC1CC#N (stereo partly drawn) [Example 418, 2-(1-acryloyl-4-(2-(((R)-1,2-dimethylpyrrolidin-2-yl)methoxy)-7-(3-fluoro-2-(trifluoromethyl)phenyl)-5,6,7,8-tetrahydropyrido[3,4-d]pyrimidin-4-yl)piperazin-2-yl)acetonitrile]"
15,0.1 to 1000,"C=CC(=O)N1CCN(c2nc(OC[C@H]3CCCN3C)nc3c2CCN(c2cc(O)cc4ccccc24)C3)CC1CC#N (stereo partly drawn) [Example 178, 2-[4-[7-(3-hydroxy-1-naphthyl)-2-[[(2R)-1-methylpyrrolidin-2-yl]methoxy]-6,8-dihydro-5H-pyrido[3,4-d]pyrimidin-4-yl]-1-prop-2-enoyl-piperazin-2-yl]acetonitrile]"
16,> 1000,"C=C(F)C(=O)N1CCN(c2nc(OC[C@@H]3CCCN3C)nc3c2CCN(c2cccc4cccc(Cl)c24)C3)[C@@H](C(F)F)C1 [Example 621, 1-[(3R)-4-[7-(8-chloro-1-naphthyl)-2-[[(2S)-1-methylpyrrolidin-2-yl]methoxy]-6,8-dihydro-5H-pyrido[3,4-d]pyrimidin-4-yl]-3-(difluoromethyl)piperazin-1-yl]-2-fluoro-prop-2-en-1-one]"
17,0.1 to 1000,"C=CC(=O)N1CCN(c2nc(OCCCN3CCN(C)CC3)nc3c2CCN(c2cc(O)cc4ccccc24)C3)CC1 [Example 82, 1-(4-(7-(3-hydroxynaphthalen-1-yl)-2-(3-(4-methylpiperazin-1-yl)propoxy)-5,6,7,8-tetrahydropyrido[3,4-d]pyrimidin-4-yl)piperazin-1-yl)prop-2-en-1-one]"
18,0.1 to 1000,C=CC(=O)N1CCN(c2nc(OC[C@@H]3CCCN3C)nc3c2CCN(c2cccc(C)c2C(F)(F)F)C3)CC1CC#N (stereo partly shown) [Example 265]
19,0.1 to 1000,"C=CC(=O)N1CCN(c2nc(OC[C@@H]3[C@H](F)CCN3C)nc3c2CCN(c2cccc4ccccc24)C3)C[C@@H]1CC#N [Example 440, 2-((S)-1-acryloyl-4-(2-(((2R,3R)-3-fluoro-1-methylpyrrolidin-2-yl)methoxy)-7-(naphthalen-1-yl)-5,6,7,8-tetrahydropyrido[3,4-d]pyrimidin-4-yl)piperazin-2-yl)acetonitrile]"
20,0.1 to 1000,"C=CC(=O)N1CCN(c2nc(OC[C@@H]3CCN(C)C3)nc3c2CCN(c2cc(O)cc4ccccc24)C3)CC1CC#N (stereo partly drawn) [Example 179, 2-[4-[7-(3-hydroxy-1-naphthyl)-2-[[(3R)-1-methylpyrrolidin-3-yl]methoxy]-6,8-dihydro-5H-pyrido[3,4-d]pyrimidin-4-yl]-1-prop-2-enoyl-piperazin-2-yl]acetonitrile]"
21,> 1000,"C=CC(=O)N1CCN(c2nc(N3CCN(C)CC3)nc3c2CCN(c2cc(O)cc4ccccc24)C3)CC1 [Example 12, 1-(4-(7-(3-hydroxynaphthalen-1-yl)-2-(4-methylpiperazin-1-yl)-5,6,7,8-tetrahydropyrido[3,4-d]pyrimidin-4-yl)piperazin-1-yl)prop-2-en-1-one]"
22,> 1000,"C=CC(=O)N1CCN(c2nc(OC[C@@H]3CCCN3C)nc3c2CCN(c2nccc4ccccc24)C3)CC1CC#N (stereo partly drawn) [Example 289, 2-[4-[7-(1-isoquinolyl)-2-[[(2S)-1-methylpyrrolidin-2-yl]methoxy]-6,8-dihydro-5H-pyrido[3,4-d]pyrimidin-4-yl]-1-prop-2-enoyl-piperazin-2-yl]acetonitrile]"
23,> 1000,"C=CC(=O)N1CCN(c2nc(OC(CO)CN3CCOCC3)nc3c2CCN(c2cc(O)cc4ccccc24)C3)CC1 (stereo not shown) [Example 217, 1-(4-(2-((1-hydroxy-3-morpholinopropan-2-yl)oxy)-7-(3-hydroxynaphthalen-1-yl)-5,6,7,8-tetrahydropyrido[3,4-d]pyrimidin-4-yl)piperazin-1-yl)prop-2-en-1-one]"
24,0.1 to 1000,"C=CC(=O)N1CCN(c2nc(OCCN3CCC(OC)CC3)nc3c2CCN(c2cc(O)cc4ccccc24)C3)CC1 [Example 108, 1-(4-(7-(3-hydroxynaphthalen-1-yl)-2-(2-(4-methoxypiperidin-1-yl)ethoxy)-5,6,7,8-tetrahydropyrido[3,4-d]pyrimidin-4-yl)piperazin-1-yl)prop-2-en-1-one]"
25,> 1000,"C=CC(=O)N1CCN(c2nc(OC3CCN(C)C3)nc3c2CCN(c2cc(O)cc4ccccc24)C3)CC1 (stereo not shown) [Example 23, 1-(4-(7-(3-hydroxynaphthalen-1-yl)-2-((1-methylpyrrolidin-3-yl)oxy)-5,6,7,8-tetrahydropyrido[3,4-d]pyrimidin-4-yl)piperazin-1-yl)prop-2-en-1-one]"
